Results published in US8871929B2, “Fused-imidazoyl compounds useful as antimicrobial agents” (Merck Sharp & Dohme Corp., priority 2010, dated 2014).
In brackets after ≈: the same amount, converted by molar mass.

These compounds were tested on Staphylococcus aureus ATCC29213 (assay: Susceptibility testing (MIC determination), broth microdilution). Settings: Mueller Hinton broth, 96-well plate, overnight incubation at 35° C., read-out: MIC Staph. aureus ATCC-29213.
Format: cell-based
Description: Compounds useful in the method of the invention were investigated for their utility as antimicrobial agents in the following assay. Susceptibility testing (MIC determinations) was performed using the standard broth microdilution methodology precisely as described in the Clinical Laboratory Standards Institute Document M7-A6; Methods for Dilution Antimicrobial Susceptibility Tests for Bacteria That Grow Aerobically; […] To perform the test, a series of 0.1 ml media in a 96-well plate is prepared with Mueller Hinton broth to which various concentrations of the test compound are added. The media are then inoculated with a standardized suspension of the test organism, Staphylococcus aureus ATCC29213. After overnight incubation at 35° C., the tests are examined and the minimal inhibitory concentration (MIC) is determined. MIC is defined as the lowest concentration of an antimicrobial agent that prevents visible growth of a microorganism in the broth microdilution susceptibility test

MIC [µg/mL] | Compound
0.06 (≈ 0.0997 µM) | O=C(CNc1c(-c2ccc(N3CCOCC3)nc2)nc2cccc(Cl)n12)N1CCN(c2c(Cl)cncc2Cl)CC1 [Compound 1]
0.125 (≈ 0.227 µM) | CCN1CCc2cc(-c3nc4ccccn4c3NCC(=O)N3CCN(c4c(Cl)cncc4Cl)CC3)ccc21 [Compound 2]
0.125 (≈ 0.214 µM) | O=C(CNc1c(-c2ccc(N3CCSCC3)nc2)nc2cnccn12)N1CCN(c2c(Cl)cncc2Cl)CC1 [Compound 3]
0.25 (≈ 0.43 µM) | Cc1cccc2nc(-c3ccc(N4CCOCC4)nc3)c(NCC(=O)N3CCN(c4c(Cl)cncc4Cl)CC3)n12 [Compound 5]
0.25 (≈ 0.43 µM) | Cc1ccc2nc(-c3ccc(N4CCOCC4)nc3)c(NCC(=O)N3CCN(c4c(Cl)cncc4Cl)CC3)n2c1 [Compound 6]
0.4 (≈ 0.704 µM) | O=C(CNc1c(-c2ccc(N3CCOCC3)nc2)nc2cnccn12)N1CCN(c2c(Cl)cncc2Cl)CC1 [Compound 7]
0.44 (≈ 0.777 µM) | O=C(CNc1c(-c2ccc(N3CCCCC3)nc2)nc2cnccn12)N1CCN(c2c(Cl)cncc2Cl)CC1 [Compound 8]
0.46 (≈ 0.833 µM) | O=C(CNc1c(-c2ccc(N3CCCC3)nc2)nc2cnccn12)N1CCN(c2c(Cl)cncc2Cl)CC1 [Compound 9]
0.5 (≈ 0.903 µM) | CN1CCOc2cc(-c3nc4cnccn4c3NCC(=O)N3CCN(c4c(Cl)cncc4Cl)CC3)ccc21 [Compound 10]
0.5 (≈ 0.884 µM) | CCN1CCCc2cc(-c3nc4cnccn4c3NCC(=O)N3CCN(c4c(Cl)cncc4Cl)CC3)ccc21 [Compound 11]
0.5 (≈ 0.95 µM) | CN(C)c1ccc(-c2nc3cnccn3c2NCC(=O)N2CCN(c3c(Cl)cncc3Cl)CC2)cn1 [Compound 12]
0.96 (≈ 1.74 µM) | CN1CCCc2cc(-c3nc4cnccn4c3NCC(=O)N3CCN(c4c(Cl)cncc4Cl)CC3)ccc21 [Compound 13]
1 (≈ 1.73 µM) | CC(C)N1CCCc2cc(-c3nc4cnccn4c3NCC(=O)N3CCN(c4c(Cl)cncc4Cl)CC3)ccc21 [Compound 14]
1 (≈ 1.77 µM) | CC(C)N1CCc2cc(-c3nc4cnccn4c3NCC(=O)N3CCN(c4c(Cl)cncc4Cl)CC3)ccc21 [Compound 15]
2 (≈ 3.87 µM) | CCc1ccc(-c2nc3cnccn3c2NCC(=O)N2CCN(c3c(Cl)cncc3Cl)CC2)s1 [Compound 16]
2 (≈ 3.54 µM) | CCCN1CCc2cc(-c3nc4cnccn4c3NCC(=O)N3CCN(c4c(Cl)cncc4Cl)CC3)ccc21 [Compound 17]
3 (≈ 5.82 µM) | CCc1ccc(-c2nc3cnccn3c2NCC(=O)N2CCN(c3c(Cl)cccc3Cl)CC2)s1 [Compound 18]
4 (≈ 7.9 µM) | CCN1CCc2cc(-c3nc4cnccn4c3NCC(=O)N3CCN(c4ccccc4C#N)CC3)ccc21 [Compound 19]
4 (≈ 7.05 µM) | O=C(CNc1c(-c2cnc(N3CCCCC3)nc2)nc2cnccn12)N1CCN(c2c(Cl)cncc2Cl)CC1 [Compound 21]
8 (≈ 14.9 µM) | Cn1ccc2cc(-c3nc4cnccn4c3NCC(=O)N3CCN(c4c(Cl)cncc4Cl)CC3)ccc21 [Compound 22]
8 (≈ 16 µM) | CCc1ccc(-c2nc3cnccn3c2NCC(=O)N2CCN(c3c(Cl)cccc3Cl)CC2)o1 [Compound 23]
8 (≈ 15 µM) | CC(C)N1CCCc2cc(-c3nc4cnccn4c3NCC(=O)N3CCN(c4ccccc4C#N)CC3)ccc21 [Compound 24]
8 (≈ 13.8 µM) | CCCN1CCCc2cc(-c3nc4cnccn4c3NCC(=O)N3CCN(c4c(Cl)cncc4Cl)CC3)ccc21 [Compound 25]
8 (≈ 15.8 µM) | CCN1CCc2cc(-c3nc4cnccn4c3NCC(=O)N3CCN(c4ncccc4C#N)CC3)ccc21 [Compound 26]
0.06 (≈ 0.109 µM) | O=C(CNc1c(-c2ccc(N3CCCC3)cc2)nc2ccccn12)N1CCN(c2c(Cl)cncc2Cl)CC1 [Compound 27]
0.31 (≈ 0.591 µM) | CN(C)c1ccc(-c2nc3ccccn3c2NCC(=O)N2CCN(c3c(Cl)cncc3Cl)CC2)cc1 [Compound 28]
5 (≈ 9.83 µM) | Cc1cccc(N2CCN(C(=O)CNc3c(-c4ccc(N5CCCC5)cc4)nc4ccccn34)CC2)c1C [Compound 29]

MIC [µg/mL] | Compound
5 (≈ 9.71 µM) | O=C(CNc1c(-c2ccc(N3CCCC3)cc2)nc2ccccn12)N1CCN(c2ccccc2Cl)CC1 [Compound 30]
5 (≈ 10.2 µM) | CN(C)c1ccc(-c2nc3ccccn3c2NCC(=O)N2CCN(c3ccccc3Cl)CC2)cc1 [Compound 31]
0.19 (≈ 0.345 µM) | CCN1CCc2cc(-c3nc4cnccn4c3NCC(=O)N3CCN(c4c(Cl)cncc4Cl)CC3)ccc21 [Compound 33]
5 (≈ 10.1 µM) | Cc1ccccc1N1CCN(C(=O)CNc2c(-c3ccc(N4CCCC4)cc3)nc3ccccn23)CC1 [Compound 34]
0.313 (≈ 0.619 µM) | N#Cc1ccccc1N1CCN(C(=O)CNc2c(-c3ccc(N4CCCC4)cc3)nc3ccccn23)CC1 [Compound 35]
0.625 (≈ 1.23 µM) | N#Cc1cccnc1N1CCN(C(=O)CNc2c(-c3ccc(N4CCCC4)cc3)nc3ccccn23)CC1 [Compound 36]
0.5 (≈ 0.983 µM) | Cc1cccc(C)c1N1CCN(C(=O)CNc2c(-c3ccc(N4CCCC4)cc3)nc3ccccn23)CC1 [Compound 37]
1 (≈ 1.9 µM) | CSc1ccccc1N1CCN(C(=O)CNc2c(-c3ccc(N4CCCC4)cc3)nc3ccccn23)CC1 [Compound 39]
1 (≈ 1.89 µM) | Cc1ccc(Cl)cc1N1CCN(C(=O)CNc2c(-c3ccc(N4CCCC4)cc3)nc3ccccn23)CC1 [Compound 40]
0.313 (≈ 0.57 µM) | O=C(CNc1c(-c2ccc(N3CCCC3)cc2)nc2ccccn12)N1CCN(c2c(Cl)cccc2Cl)CC1 [Compound 41]
2.5 (≈ 4.84 µM) | O=C(CNc1c(-c2ccc(N3CCCC3)cc2)nc2ccccn12)N1CCN(c2ccncc2Cl)CC1 [Compound 42]
8 (≈ 16.2 µM) | Cc1ccccc1C1CCN(C(=O)CNc2c(-c3ccc(N4CCCC4)cc3)nc3ccccn23)CC1 [Compound 43]
4 (≈ 7.55 µM) | O=C(CNc1c(-c2ccc(N3CCCC3)cc2)nc2ccccn12)N1CCC(c2cccc3ccccc23)CC1 [Compound 44]
0.313 (≈ 0.618 µM) | N#Cc1ccccc1N1CCN(C(=O)CNc2c(-c3ccc(N4CCCC4)cc3)nc3cnccn23)CC1 [Compound 46]
0.625 (≈ 1.23 µM) | N#Cc1cccnc1N1CCN(C(=O)CNc2c(-c3ccc(N4CCCC4)cc3)nc3cnccn23)CC1 [Compound 47]
5 (≈ 9.48 µM) | CSc1ccccc1N1CCN(C(=O)CNc2c(-c3ccc(N4CCCC4)cc3)nc3cnccn23)CC1 [Compound 49]
2.5 (≈ 4.72 µM) | Cc1ccc(Cl)cc1N1CCN(C(=O)CNc2c(-c3ccc(N4CCCC4)cc3)nc3cnccn23)CC1 [Compound 50]
5 (≈ 9.67 µM) | O=C(CNc1c(-c2ccc(N3CCCC3)cc2)nc2cnccn12)N1CCN(c2ccncc2Cl)CC1 [Compound 51]
5 (≈ 9.42 µM) | O=C(CNc1c(-c2ccc(N3CCCC3)cc2)nc2cnccn12)N1CCC(c2cccc3ccccc23)CC1 [Compound 52]
6 (≈ 12.5 µM) | CN(C)c1ccc(-c2nc3ccccn3c2NCC(=O)N2CCN(c3ncccc3C#N)CC2)cc1 [Compound 55]
2 (≈ 4.14 µM) | Cc1cccc(C)c1N1CCN(C(=O)CNc2c(-c3ccc(N(C)C)cc3)nc3ccccn23)CC1 [Compound 56]
0.25 (≈ 0.478 µM) | CN(C)c1ccc(-c2nc3ccccn3c2NCC(=O)N2CCN(c3c(Cl)cccc3Cl)CC2)cc1 [Compound 57]
6 (≈ 12.5 µM) | CN(C)c1ccc(-c2nc3cnccn3c2NCC(=O)N2CCN(c3ccccc3C#N)CC2)cc1 [Compound 58]
6 (≈ 12.5 µM) | CN(C)c1ccc(-c2nc3cnccn3c2NCC(=O)N2CCN(c3ncccc3C#N)CC2)cc1 [Compound 59]
8 (≈ 15.9 µM) | Cc1ccc(Cl)cc1N1CCN(C(=O)CNc2c(-c3ccc(N(C)C)cc3)nc3cnccn23)CC1 [Compound 60]
0.25 (≈ 0.477 µM) | CN(C)c1ccc(-c2nc3cnccn3c2NCC(=O)N2CCN(c3c(Cl)cccc3Cl)CC2)cc1 [Compound 61]
8 (≈ 15.9 µM) | CN(C)c1ccc(-c2nc3cnccn3c2NCC(=O)N2CCC(c3cccc4ccccc34)CC2)cc1 [Compound 62]
